Values of other authors as cited in patent US20250144250A1, “PH-SENSITIVE FLUOROPHORES” (The General Hospital Corporation, priority 2022, published 2025).

Conditions: in DMSO; cited from earlier work

## CC1(C)C(/C=C/C=C/C=C/C=C2\N(CCCCS(=O)(=O)O)c3ccc4ccccc4c3C2(C)C)=[N+](CCCCS(=O)(=O)[O-])c2ccc3ccccc3c21 [ICG, indocyanine green]
  fluorescence QY of calibration standard: 13%
